Experimental findings from EP3153160A1, “USE OF XANTHOPHYLLS FOR THE TREATMENT OF CANCERS” (Lu, Chuen Wei, priority 2015, dated 2017) are described below.

SMILES strings stand for the structures.

Assay type in all cases: cell-based
One test has as its system M059K. Kind of test: M059K cell growth, cell counting. As to conditions: 100, 200 or 400 µM astaxanthin for 24 hours or 48 hours, cell numbers counted, vs DMSO; Figure 6. On the procedure: (§1) Human U87MG (ATCC, ATCC® HTB-14™) cell line was grown in DMEM medium supplemented with 10% fetal bovine serum at 37°C in a humidified atmosphere at 5% CO2. M059K (ATCC, ATCC® CRL-2365™) and M059J (ATCC, ATCC® CRL-2366™) cell lines were grown in Dulbecco's modified Eagle medium (DMEM)-F12 supplemented with 10% fetal bovine serum at 37°C in a humidified atmosphere at 5% CO2.
(§2) Astaxanthin was dissolved in dimethyl sulfoxide (DMSO) at concentration of 20 mM as stock solution.
(§3) The U87MG, M059K, and M059J cell lines were treated with DMSO or 100, 200 or 400 µM of astaxanthin for 24 hours or 48 hours and cell numbers were counted.

The next test relates to Human U2OS. Kind of test: U2OS cell growth, cell counting. As to conditions: 100, 200 or 400 µM astaxanthin for 72 hours, cell numbers counted, vs DMSO; Figure 8. On the procedure: Human U2OS (ATCC, ATCC® HTB-96™) cell line was grown in DMEM medium supplemented with 10% fetal bovine serum at 37°C in a humidified atmosphere at 5% CO2.
as §2
The U2OS cell line was treated with DMSO or 100, 200 or 400 µM of astaxanthin for 72 hours and cell numbers were counted.

For another test, the system named is M059J. Put plainly: M059J cell growth, cell counting. Particulars: 100, 200 or 400 µM astaxanthin for 24 hours or 48 hours, cell numbers counted, vs DMSO; Figure 7. On the procedure:
as §1, §2, §3

In test [1] the test system is Human U87MG. Put plainly: U87MG cell growth, cell counting. As to conditions: 100, 200 or 400 µM astaxanthin for 24 hours or 48 hours, cell numbers counted, vs DMSO; Figure 4. On the procedure: as §1, §2, §3
The subject of test [2] is Mouse adrenocortical Y1 cell line. Put plainly: MTT assay of Y1 cell viability. Particulars: Y1 cells, 40 µM astaxanthin for 48 hours, compared with DMSO treated group, Fig. 3. Here is the method:
(§4) Mouse adrenocortical Y1 cell line (ATCC, ATCC® CCL-79™) was grown in Dulbecco's modified Eagle medium (DMEM)-F12 supplemented with 10% fetal bovine serum at 37°C in a humidified atmosphere at 5% CO2.
(§5) Astaxanthin (Model NO: ATP-9601A; Yuan Yu Bio-Tech (Taiwan), Co., Ltd) was dissolved in dimethyl sulfoxide (DMSO) at concentration of 20 mM as stock solution.
(§6) The Y1 cells were incubated with DMSO or 40 µM of astaxanthin for 1, 2 or 3 days before analysis.
(§7) Cells were washed with PBS after the treatment, followed by addition of 1 ml MTT (3-(4,5-cimethylthiazol-2-yl)-2,5-diphenyl tetrazolium bromide) solution (2 mg/ml in PBS) in each well. After incubation for 3 hours at 37°C, 2 ml of DMSO was added and cells were incubated in the dark for 30 minutes. Absorbance was measured at the wavelength of 570 nm (OD570).

For test [3] the test system is unchanged. Put plainly: Y1 cell growth, cell counting. Particulars: 40 µM astaxanthin, 1, 2 or 3 days of treatment, compared with control (DMSO treated) group; Figures 1 and 2. Here is the method: as §4, §5, §6
Test [4] has as its system Human U87MG. Put plainly: MTT assay of U87MG cell viability. Particulars: DMSO or different concentrations of astaxanthin, Figures 5A and 5B. Here is the method:
as §7, §1, §2, §3
(In general: Tetrazolium dyes change colour on reduction, which living cells bring about.)

On to `CC1=C(/C=C/C(C)=C/C=C/C(C)=C/C=C/C=C(C)/C=C/C=C(C)/C=C/C2=C(C)C(=O)C(O)CC2(C)C)C(C)(C)CC(O)C1=O` (stereo not shown) [astaxanthin, Astaxanthin], for which the M059K cell growth entry in the test with M059K is “inhibited”. Also, the U2OS cell growth result with Human U2OS was “inhibited U2OS cell growth in a dose-dependent manner”. Besides, the M059J cell growth entry in the test on M059J is “inhibited”. Further, the U87MG cell growth result in the test with Human U87MG [1] was “inhibited U87MG cell growth in a dose-dependent and time-dependent manner”. Moreover, in test [2], the OD570 result is “reduced”. In addition, the “number of Y1 cells” value in test [3] is “reduced”. Further, in the test with Human U87MG [4], the “viability of U87MG cells” value is listed as “reduced”.
